Experimental data reported in DBAASP.
≈ marks a conversion by molar mass, not a printed value.

Key:
Assay in all cases: ≥ marks a high value that may be exact or a test limit, other limits are often not marked, values filed in µg/mL are converted to µM
[1] = test system: Salmonella typhimurium KCTC 1926
Enterococcus faecium VR = test system: Enterococcus faecium VR
[2] = test system: Staphylococcus epidermidis KCTC 1917
[3] = test system: Pseudomonas aeruginosa KCTC 1637
Staphylococcus aureus MR = test system: Staphylococcus aureus MR
[4] = test system: Bacillus subtilis KCTC 3068
Enterococcus faecalis = test system: Enterococcus faecalis
[5] = test system: Escherichia coli KCTC 1682
Enterococcus faecalis VR = test system: Enterococcus faecalis VR
[6] = test system: Staphylococcus aureus KCTC 1621
Enterococcus faecium = test system: Enterococcus faecium
[7] = test system: Salmonella enterica subsp. enterica serovar Enteritidis
Listeria innocua = test system: Listeria innocua
Escherichia coli = test system: Escherichia coli
Micrococcus luteus A270 = test system: Micrococcus luteus A270
Bacillus subtilis = test system: Bacillus subtilis
Saccharomyces cerevisiae = test system: Saccharomyces cerevisiae
Staphylococcus aureus = test system: Staphylococcus aureus
Pseudomonas putida = test system: Pseudomonas putida
Salmonella typhimurium = test system: Salmonella typhimurium
Cryptococcus neoformans = test system: Cryptococcus neoformans
Streptococcus pneumoniae = test system: Streptococcus pneumoniae
Streptococcus mutans = test system: Streptococcus mutans
Candida albicans = test system: Candida albicans
Serratia marcescens = test system: Serratia marcescens
[8] = test system: Escherichia coli ATCC 25922
[9] = test system: Acinetobacter baumannii ATCC 19606
[10] = test system: Cryptococcus neoformans ATCC 208821
[11] = test system: Pseudomonas aeruginosa ATCC 27853
[12] = test system: Candida albicans ATCC 90028
[13] = test system: Klebsiella pneumoniae ATCC 700603
[14] = test system: Staphylococcus aureus ATCC 43300
[15] = test system: Staphylococcus aureus ATCC 25923
[16] = test system: Klebsiella pneumoniae ATCC 13883
[17] = test system: Streptococcus pyogenes ATCC 19615
[18] = test system: Staphylococcus aureus ATCC BAA-44
[19] = test system: Staphylococcus epidermidis ATCC 51625
[20] = test system: Enterococcus faecalis ATCC 29212
[21] = test system: Salmonella enterica subsp. enterica serovar Typhimurium ATCC 14028

MIC [1] [µM]	MIC (Enterococcus faecium VR) [µM]	MIC [2] [µM]	MIC [3] [µM]	MIC (Staphylococcus aureus MR) [µM]	MIC [4] [µM]	MIC (Enterococcus faecalis) [µM]	MIC [5] [µM]	MIC (Enterococcus faecalis VR) [µM]	MIC [6] [µM]	MIC (Enterococcus faecium) [µM]	MIC (Escherichia coli) [µM]	MIC (Bacillus subtilis) [µM]	SMILES	also measured
30	7.5	30	30	30	15	30	30	30	30	30	–	–	CSCC[C@H](NC(=O)[C@H](C)NC(=O)[C@H](CC(C)C)NC(=O)[C@H](CS)NC(=O)[C@H](Cc1cnc[nH]1)NC(=O)[C@H](C)NC(=O)[C@H](C)N)C(=O)N[C@@H](CCCN=C(N)N)C(=O)N[C@@H](CCCN=C(N)N)C(=O)N[C@@H](CCCCN)C(N)=O [AAHCLAMRRK]	–
15 (≈ 17.8 µg/mL)	30 (≈ 35.6 µg/mL)	15 (≈ 17.8 µg/mL)	30 (≈ 35.6 µg/mL)	30 (≈ 35.6 µg/mL)	30 (≈ 35.6 µg/mL)	30 (≈ 35.6 µg/mL)	30 (≈ 35.6 µg/mL)	30 (≈ 35.6 µg/mL)	30 (≈ 35.6 µg/mL)	30 (≈ 35.6 µg/mL)	–	–	CC(C)C[C@H](NC(=O)[C@H](CS)NC(=O)[C@H](CCCN=C(N)N)NC(=O)[C@H](C)NC(=O)[C@H](C)N)C(=O)N[C@@H](CO)C(=O)N[C@@H](CCC(N)=O)C(=O)N[C@@H](CCCN=C(N)N)C(=O)N[C@@H](CCCN=C(N)N)C(=O)N[C@@H](CCCCN)C(N)=O [AARCLSQRRK]	–
15 (≈ 17.3 µg/mL)	3.8 (≈ 4.38 µg/mL)	15 (≈ 17.3 µg/mL)	15 (≈ 17.3 µg/mL)	7.5 (≈ 8.64 µg/mL)	7.5 (≈ 8.64 µg/mL)	15 (≈ 17.3 µg/mL)	15 (≈ 17.3 µg/mL)	15 (≈ 17.3 µg/mL)	7.5 (≈ 8.64 µg/mL)	15 (≈ 17.3 µg/mL)	–	–	CC[C@H](C)[C@H](NC(=O)[C@H](CS)NC(=O)[C@H](Cc1cnc[nH]1)NC(=O)[C@H](CC(C)C)NC(=O)[C@H](C)N)C(=O)N[C@@H](C)C(=O)N[C@@H](CC(C)C)C(=O)N[C@@H](CCCN=C(N)N)C(=O)N[C@@H](CCCCN)C(=O)N[C@@H](CCCCN)C(N)=O [ALHCIALRKK]	–
–	–	–	–	–	–	–	–	–	–	–	2 (≈ 1.59 µg/mL)	–	CC(C)C[C@H](N)C(=O)N[C@@H](C)C(=O)N[C@@H](Cc1cnc[nH]1)C(=O)N[C@@H](CCCN=C(N)N)C(=O)N[C@@H](Cc1ccc(O)cc1)C(=O)N[C@@H](Cc1cnc[nH]1)C(=O)O [LAHRYH]	MIC [7]: 9 µM (≈ 7.16 µg/mL); MIC (Listeria innocua): 10 µM (≈ 7.96 µg/mL); MIC (Micrococcus luteus A270): 9 µM (≈ 7.16 µg/mL)
–	–	–	–	–	–	–	–	–	–	–	15.8 (≈ 32 µg/mL)	15.8 (≈ 32 µg/mL)	CC(C)C[C@H](NC(=O)CNC(=O)[C@H](C)NC(=O)[C@@H](N)CCCN=C(N)N)C(=O)N[C@@H](CCC(N)=O)C(=O)N[C@@H](Cc1ccccc1)C(=O)N[C@@H](CC(C)C)C(=O)N[C@H](C(=O)NCC(=O)N[C@@H](CCCN=C(N)N)C(=O)N[C@H](C(=O)N[C@@H](Cc1cnc[nH]1)C(=O)N[C@@H](CCCN=C(N)N)C(=O)N[C@@H](CC(C)C)C(=O)N[C@@H](CC(C)C)C(=O)N[C@@H](CCCN=C(N)N)C(=O)N[C@@H](CCCCN)C(=O)O)C(C)C)C(C)C [RAGLQFLVGRVHRLLRK]	MIC (Saccharomyces cerevisiae): 7.92 µM (≈ 16 µg/mL); MIC (Staphylococcus aureus): 15.8 µM (≈ 32 µg/mL); MIC (Pseudomonas putida): 7.92 µM (≈ 16 µg/mL); MIC (Salmonella typhimurium): 7.92 µM (≈ 16 µg/mL); MIC (Cryptococcus neoformans): 7.92 µM (≈ 16 µg/mL); MIC (Streptococcus pneumoniae): 15.8 µM (≈ 32 µg/mL); MIC (Streptococcus mutans): 15.8 µM (≈ 32 µg/mL); MIC (Candida albicans): 7.92 µM (≈ 16 µg/mL); MIC (Serratia marcescens): 31.7 µM (≈ 64 µg/mL)
–	–	–	–	–	–	–	–	–	–	–	45.5 (≈ 128 µg/mL)	2.85 (≈ 8 µg/mL)	CC(C)C[C@H](NC(=O)[C@H](CC(C)C)NC(=O)[C@H](CCCN=C(N)N)NC(=O)[C@H](Cc1cnc[nH]1)NC(=O)[C@@H](NC(=O)[C@H](CCCN=C(N)N)NC(=O)[C@H](CCCN=C(N)N)NC(=O)[C@H](CC(C)C)NC(=O)[C@H](CC(C)C)NC(=O)[C@H](CCCN=C(N)N)NC(=O)[C@H](Cc1cnc[nH]1)NC(=O)[C@@H](NC(=O)[C@H](CCCN=C(N)N)NC(=O)[C@H](CCCN=C(N)N)NC(=O)[C@H](CC(C)C)NC(=O)[C@H](CC(C)C)NC(=O)[C@H](CCCN=C(N)N)NC(=O)[C@H](Cc1cnc[nH]1)NC(=O)[C@@H](NC(=O)[C@@H](N)CCCN=C(N)N)C(C)C)C(C)C)C(C)C)C(=O)N[C@@H](CCCN=C(N)N)C(=O)O [RVHRLLRRVHRLLRRVHRLLR]	MIC (Saccharomyces cerevisiae): ≥ 91.1 µM; MIC (Staphylococcus aureus): 22.8 µM (≈ 64 µg/mL); MIC (Pseudomonas putida): 22.8 µM (≈ 64 µg/mL); MIC (Salmonella typhimurium): 1.42 µM (≈ 4 µg/mL); MIC (Cryptococcus neoformans): ≥ 45.5 µM; MIC (Streptococcus pneumoniae): ≥ 45.5 µM; MIC (Streptococcus mutans): 11.4 µM (≈ 32 µg/mL); MIC (Candida albicans): > 91.1 µM; MIC (Serratia marcescens): 22.8 µM (≈ 64 µg/mL)
–	–	–	–	–	–	–	–	–	–	–	–	–	NC(N)=NCCC[C@H](NC(=O)[C@H](Cc1cnc[nH]1)NC(=O)[C@H](CO)NC(=O)[C@H](CCCN=C(N)N)NC(=O)[C@H](CCCN=C(N)N)NC(=O)[C@H](CS)NC(=O)[C@H](CCCN=C(N)N)NC(=O)[C@H](Cc1cnc[nH]1)NC(=O)[C@H](Cc1cnc[nH]1)NC(=O)[C@@H](N)CO)C(=O)N[C@@H](CS)C(=O)O [SHHRCRRSHRC]	MIC [8]: > 22.3 µM; MIC [9]: > 22.3 µM; MIC [10]: 22.3 µM (≈ 32 µg/mL); MIC [11]: > 22.3 µM; MIC [12]: 22.3 µM (≈ 32 µg/mL); MIC [13]: > 22.3 µM; MIC [14]: > 22.3 µM
–	–	–	–	–	–	–	–	–	–	–	2 (≈ 6.72 µg/mL)	2 (≈ 6.72 µg/mL)	CC(C)C[C@H](NC(=O)[C@H](CCCN=C(N)N)NC(=O)[C@H](CO)NC(=O)[C@H](Cc1cnc[nH]1)NC(=O)[C@H](CCCN=C(N)N)NC(=O)[C@@H]1CCCN1C(=O)[C@H](CCCN=C(N)N)NC(=O)[C@H](Cc1cnc[nH]1)NC(=O)[C@@H]1CCCN1C(=O)[C@H](CO)NC(=O)[C@H](CC(C)C)NC(=O)[C@H](CO)NC(=O)[C@H](CCCN=C(N)N)NC(=O)[C@H](CCCCN)NC(=O)[C@@H](NC(=O)[C@@H](NC(=O)CNC(=O)[C@H](CCCN=C(N)N)NC(=O)[C@H](Cc1cnc[nH]1)NC(=O)[C@H](Cc1c[nH]c2ccccc12)NC(=O)[C@H](Cc1ccccc1)NC(=O)[C@H](Cc1cnc[nH]1)NC(=O)[C@H](Cc1ccc(O)cc1)NC(=O)[C@@H](N)Cc1ccc(O)cc1)C(C)C)[C@@H](C)O)C(=O)N[C@@H](CCC(N)=O)C(=O)N[C@@H](CCCN=C(N)N)C(=O)O [YYHFWHRGVTKRSLSPHRPRHSRLQR]	MIC [15]: 4 µM (≈ 13.4 µg/mL); MIC [16]: 2 µM (≈ 6.72 µg/mL); MIC [17]: 4 µM (≈ 13.4 µg/mL); MIC [18]: 6 µM (≈ 20.2 µg/mL); MIC [11]: 4 µM (≈ 13.4 µg/mL); MIC [19]: 6 µM (≈ 20.2 µg/mL); MIC [20]: 4 µM (≈ 13.4 µg/mL); MIC [21]: 4 µM (≈ 13.4 µg/mL)
